# “Also recorded” adds a separate entry of the source.
# Experiments:
# [1] = system: matrigel plug angiogenesis; experiment: Mouse matrigel model of angiogenesis (plug hemoglobin); type: in vivo, mice (C57BL/6NCr)
# Procedure: Normal male mice (C57BL/6NCr) 6-8 weeks of age and weighing ˜20 g were purchased from Taconic farm. Animals were housed 4 per cage, in controlled conditions of temperature (20-24° C.); humidity (60-70%) and 12 hrs. light/dark cycle provided with food and water ad libitum. […] Aliquots of matrigel were placed into cold polypropylene tubes to prevent the matrigel from solidifying and the angiogenesis promoter added to matrigel with or without agonist. Mice were treated daily. Matrigel was subcutaneously injected as triple injection per animal at 100 μL/animal. At day 14 post plug implant all animals were killed in CO2 chamber and matrigel plugs were collected. Plug hemoglobin content was analyzed from three implants/mice (n=6 per group) to measure angiogenesis.
# The matrigel plugs dissected from the mice were carefully stripped of any remaining peritoneum. The plugs were placed into 0.5 mL tube of ddH2O and homogenized for 5-10 min. […] Absorbance was read with a Microplate Manager ELISA reader at 540 nm. […] Hemoglobin concentration is a reflection of the number of blood vessels in the plugs.
# [2] = system: chick chorioallantoic membrane (CAM) blood vessel branch points; experiment: Chick chorioallantoic membrane (CAM) model of angiogenesis; type: in vivo
# Procedure: In vivo neovascularization was examined by methods described previously. 9-12 Ten-day-old chick embryos were purchased from SPAFAS (Preston, Conn.) and incubated at 37° C. with 55% relative humidity. A hypodermic needle was used to make a small hole in the shell concealing the air sac, and a second hole was made on the broad side of the egg, directly over an avascular portion of the embryonic membrane that was identified by candling. A false air sac was created beneath the second hole by the application of negative pressure at the first hole, causing the CAM to separate from the shell. […] Thyroid hormone, hormone analogs, FGF2 or control solvents, and inhibitors were then applied to the disks and the disks allowed to dry. The disks were then suspended in PBS and placed on growing CAMs. […] At 24 hours, the MAPK cascade inhibitor PD 98059 was also added to CAMs topically by means of the filter disks. […] The number of vessel branch points contained in a circular region equal to the area of each filter disk were counted. […] In addition, each experiment was performed 3 times. The resulting angiogenesis index is the mean±SEM of new branch points.
# [3] = system: GL261 cells; experiment: GL261 sublethal damage repair (SLDR), split dose; type: cell-based, murine
# Procedure: SLDR was measured at 10% immediate survival level as determined from the acute single dose curve for both control and Tetrac-treated cells in both growth states (i.e. exponentially growing and plateau phase cells. Flasks were irradiated with one-half of the total dose and returned to the 37° C. incubator. At increasing periods of time, flasks were removed, and given the second half of the immediate 10% survival dose. Survival was measured at 0, 0.5, 1.0, 1.5, 2.0, 3.0, 4.0, 6.0, 8.0, and 10.0 hours after the initial dose.
# To investigate the effects of Tetrac on SLDR and PLDR, cells were chosen that had been given a one-hour treatment with Tetrac at two different times, i.e., at 70 and 270 hours post-seeding).
# [4] = biological target: TTR (Transthyretin) (Homo sapiens, UniProt P02766); experiment: TTR displacement assay; type: binding
# Description: Determination of the optimal or preferred density of the thyroid hormone or thyroid hormone analog bound to the nanoparticles is within the routine skill level in the art. For example, those skilled in the art will recognize that TTR (Transthyretin) can be used as the basis for a displacement assay in order to quantify the amount of Tetrac bound to nanoparticles. Specifically, such assays involve in vitro displacement of radiolabeled T4 from TTR by Tetrac or Tetrac nanoparticles (Tetrac NP). […] Amounts of nanoparticulate Tetrac in unknown suspensions (i.e., biologic fluids) are then calculated from the displacement of radiolabeled T4. […] The tubes are mixed and incubated for 16 hours at 4° C. The bound and free hormones are separated by adding dextran-coated charcoal (DCC) to each tube, which is then centrifuged at 12,000×g for 2 min. at 4° C. Bound [I^125] T4 in the supernatant is measured by scintillation counting.
structure (smiles),measurement,setting,value
"O=C(O)Cc1cc(I)c(Oc2cc(I)c(O)c(I)c2)c(I)c1 [Tetrac, tetraiodothyroacetic acid]",inhibition in vivo at 10 µg/plug,"[1]; Mus musculus, FGF 100 ng + test substance 10 μg/plug, numbers are Tetrac analogs of Example 13",90 ± 13%
same,inhibition of FGF induced angiogenesis,[1]; Tetrac 10 μg,85%
same,effect on angiogenesis stimulated by T4-agarose (in words),[2]; T4-agarose 0.1 μmol/L + Tetrac,inhibited
same,effect on angiogenesis stimulated by T4 (in words),"[2]; Tetrac 0.1 μmol/L, T4 0.1 μmol/L",inhibited the action of T4
same,effect of Tetrac alone on angiogenesis (in words),[2]; Tetrac alone,had no effect on angiogenesis; also recorded: does not stimulate angiogenesis
same,repair of x-ray damage at 6 to 8 hours post-irradiation (in words),"[3]; 2 uM, FIG. 58, control repaired by a factor of 4 to 5",showed no repair of x-ray damage
same,reduction of SLDR by a factor of,[3]; exponential cells,1.8
same,SLDR recovery ratio at 10 hours post-irradiation,"[3]; exponential cells, two 2.50 Gy split doses, control approximately 4 to 5",approximately 2.2
same,SLDR recovery ratio at 2 hours after the first dose,"[3]; exponential cells, control approximately 2.5",1.8
same,"survival at 3 hours after the initial dose, relative to survival at 0 hours (fixation of damage)",[3]; plateau phase cells with Tetrac,approximately 36%
same,decrease in cellular repair (SLDR) by a factor of,"[3]; plateau phase cells, three hours post-irradiation",~3
same,affinity of TTR relative to that for T4,[4],100 times

# — US8802240B2, “Uses of formulations of thyroid hormone analogs and nanoparticulate forms thereof to increase chemosensitivity and radiosensitivity in tumor or cancer cells” (Nanopharmaceuticals LLC, priority 2011, dated 2014)
